From ChEMBL document CHEMBL5096219, “Design, synthesis and biological evaluation of novel pyrazinone derivatives as PI3K/HDAC dual inhibitors” (Bioorg Med Chem, 2022)

Assays:
[1] = biological target: T1, Protein deacetylase HDAC6 (Homo sapiens, UniProt Q9UBN7); assay: Inhibition of HDAC6 (unknown origin)
T1 sequence (Q9UBN7 whole entry): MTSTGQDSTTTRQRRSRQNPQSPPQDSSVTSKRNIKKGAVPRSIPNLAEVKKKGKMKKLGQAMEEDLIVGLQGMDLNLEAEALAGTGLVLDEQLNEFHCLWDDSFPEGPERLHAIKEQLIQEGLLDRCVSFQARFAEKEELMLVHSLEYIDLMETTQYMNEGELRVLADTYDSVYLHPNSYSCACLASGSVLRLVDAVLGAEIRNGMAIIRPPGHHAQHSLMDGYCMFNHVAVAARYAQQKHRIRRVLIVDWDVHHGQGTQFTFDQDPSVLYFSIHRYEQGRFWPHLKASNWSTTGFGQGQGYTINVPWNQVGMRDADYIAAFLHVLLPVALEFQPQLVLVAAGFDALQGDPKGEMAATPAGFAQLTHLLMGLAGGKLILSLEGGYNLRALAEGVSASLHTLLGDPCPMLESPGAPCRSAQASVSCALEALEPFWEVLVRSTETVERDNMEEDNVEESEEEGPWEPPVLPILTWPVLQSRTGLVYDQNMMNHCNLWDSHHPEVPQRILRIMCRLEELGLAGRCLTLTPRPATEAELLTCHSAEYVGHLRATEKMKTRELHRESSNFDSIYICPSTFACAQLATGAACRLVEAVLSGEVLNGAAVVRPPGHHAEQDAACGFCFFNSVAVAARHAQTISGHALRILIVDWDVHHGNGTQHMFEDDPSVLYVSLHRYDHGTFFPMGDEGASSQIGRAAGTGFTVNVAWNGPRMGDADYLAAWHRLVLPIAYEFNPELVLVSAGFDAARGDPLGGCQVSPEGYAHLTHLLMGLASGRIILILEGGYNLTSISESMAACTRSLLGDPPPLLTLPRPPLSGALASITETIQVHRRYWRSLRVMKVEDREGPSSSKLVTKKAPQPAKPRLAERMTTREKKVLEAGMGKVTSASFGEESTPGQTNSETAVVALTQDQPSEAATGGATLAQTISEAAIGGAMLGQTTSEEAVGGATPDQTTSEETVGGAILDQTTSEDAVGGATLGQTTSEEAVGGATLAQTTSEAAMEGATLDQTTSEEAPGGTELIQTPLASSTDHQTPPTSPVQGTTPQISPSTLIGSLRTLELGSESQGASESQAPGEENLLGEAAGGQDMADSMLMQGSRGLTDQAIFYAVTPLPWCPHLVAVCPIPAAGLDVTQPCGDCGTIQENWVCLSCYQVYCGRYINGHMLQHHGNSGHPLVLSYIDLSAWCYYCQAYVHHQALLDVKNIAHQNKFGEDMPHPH

K562 = assay: cells; type: functional, cell-based; conditions: Homo sapiens, K562, 72 h
Description: Antiproliferative activity against human K562 cells assessed as inhibition of cell proliferation incubated for 72 hrs by CCK8 assay

HCT-116 = assay: Antiproliferative activity against human HCT-116 cells assessed as inhibition of cell proliferation incubated for 72 hrs by MTT assay; type: functional, cell-based; conditions: HCT-116, 72 h
MV4-11 [2] = assay: Induction of apoptosis in human MV4-11 cells assessed as viable cells at 50 nM incubated for 48 hrs by Annexin V-FITC/PI staining based flow cytometry (reference value: 96.5%); type: functional; conditions: read-out: Activity
MV4-11 [3] = assay: Induction of apoptosis in human MV4-11 cells assessed as viable cells at 150 nM incubated for 48 hrs by Annexin V-FITC/PI staining based flow cytometry (reference value: 96.5%); type: functional; conditions: read-out: Activity
MV4-11 [4] = assay: Induction of apoptosis in human MV4-11 cells assessed as early apoptotic cells at 150 nM incubated for 48 hrs by Annexin V-FITC/PI staining based flow cytometry (reference value: 0.95%); type: functional
MV4-11 [5] = assay: Induction of apoptosis in human MV4-11 cells assessed as late apoptotic cells at 150 nM incubated for 48 hrs by Annexin V-FITC/PI staining based flow cytometry (reference value: 2.04%); type: functional
MV4-11 [6] = assay: Induction of apoptosis in human MV4-11 cells assessed as necrotic cells at 150 nM incubated for 48 hrs by Annexin V-FITC/PI staining based flow cytometry (reference value: 0.51%); type: functional
MV4-11 [7] = assay: Induction of apoptosis in human MV4-11 cells assessed as viable cells at 450 nM incubated for 48 hrs by Annexin V-FITC/PI staining based flow cytometry (reference value: 96.5%); type: functional; conditions: read-out: Activity
MV4-11 [8] = assay: Induction of apoptosis in human MV4-11 cells assessed as late apoptotic cells at 450 nM incubated for 48 hrs by Annexin V-FITC/PI staining based flow cytometry (reference value: 2.04%); type: functional
MV4-11 [9] = assay: Induction of apoptosis in human MV4-11 cells assessed as necrotic cells at 450 nM incubated for 48 hrs by Annexin V-FITC/PI staining based flow cytometry (reference value: 0.51%); type: functional
MV4-11 [10] = assay: Induction of apoptosis in human MV4-11 cells assessed as total apoptotic cells at 50 nM incubated for 48 hrs by Annexin V-FITC/PI staining based flow cytometry (reference value: 2.99%); type: functional
MV4-11 [11] = assay: Induction of apoptosis in human MV4-11 cells assessed as total apoptotic cells at 150 nM incubated for 48 hrs by Annexin V-FITC/PI staining based flow cytometry (reference value: 2.99%); type: functional
MV4-11 [12] = assay: Induction of apoptosis in human MV4-11 cells assessed as total apoptotic cells at 450 nM incubated for 48 hrs by Annexin V-FITC/PI staining based flow cytometry (reference value: 2.99%); type: functional
MV4-11 [13] = assay: Induction of cell cycle arrest in human MV4-11 cells assessed as accumulation of cells at S phase at 50 nM incubated for 48 hrs by […]PI staining based flow cytometry (reference value: 45.5%); type: functional
MV4-11 [14] = assay: Induction of cell cycle arrest in human MV4-11 cells assessed as accumulation of cells at S phase at 150 nM incubated for 48 hrs by […]PI staining based flow cytometry (reference value: 45.5%); type: functional
MV4-11 [15] = assay: Induction of cell cycle arrest in human MV4-11 cells assessed as accumulation of cells at S phase at 450 nM incubated for 48 hrs by […]PI staining based flow cytometry (reference value: 45.5%); type: functional
MV4-11 [16] = assay: Induction of cell cycle arrest in human MV4-11 cells assessed as accumulation of cells at G2/M phase at 450 nM incubated for 48 hrs by […]PI staining based flow cytometry (reference value: 11.5%); type: functional
MV4-11 [17] = assay: Induction of cell cycle arrest in human MV4-11 cells assessed as accumulation of cells at G0/G1 phase at 1350 nM incubated for 48 hrs by […]PI staining based flow cytometry (reference value: 33.1%); type: functional
[18] = biological target: T2, Protein deacetylase HDAC6 (Homo sapiens) (UniProt Q9UBN7); assay: Inhibition of HDAC6 in human MV4-11 cells assessed as increase in acetylated alpha-tubulin level incubated for 24 hrs by western blot analysis; type: cell-based; conditions: dose 0.05-0.45 µM, DDE = dose-dependent effect
T2 sequence (whole entry): T1 sequence (Q9UBN7 whole entry)

[19] = biological target: T2, Protein deacetylase HDAC6 (Homo sapiens); conditions: dose 100.0 nM
Description: Inhibition of HDAC6 (unknown origin) at 100 nM

IC50 [1]: 4.5 nM
IC50 (K562): 120 nM
IC50 (HCT-116): 16400 nM
inhibition [18]: Dde
inhibition [19]: 90%
SMILES: O=C(NO)c1ccc(Cn2cc(-c3cccc4[nH]ncc34)nc(N3CCOCC3)c2=O)cc1
viability at 0.05 µM (MV4-11 [2]): 92.5%
viability at 0.15 µM (MV4-11 [3]): 79.6%
Activity (MV4-11 [4]): 2.44%
Activity (MV4-11 [5]): 14.5%
Activity (MV4-11 [6]): 3.45%
viability at 0.45 µM (MV4-11 [7]): 18.7%
Activity (MV4-11 [8]): 46.1%
Activity (MV4-11 [9]): 0.69%
Activity (MV4-11 [10]): 7.2%
Activity (MV4-11 [11]): 16.94%
Activity (MV4-11 [12]): 80.7%
Activity (MV4-11 [13]): 37.8%
Activity (MV4-11 [14]): 31%
Activity (MV4-11 [15]): 34.9%
Activity (MV4-11 [16]): 38.3%
Activity (MV4-11 [17]): 15.2%
